Structures are written as SMILES.

The subject of assay [1] is P. aeruginosa PAM1154 carrying pUCP24 vector (PAM4175). Nature of the assay: MIC, CLSI broth microdilution. In kind it is cell-based. The settings on record: Pseudomonas aeruginosa, drug alone. An excerpt:
The effects of KPC mutations on resistance to various antibiotics were investigated. For these studies, pUCP24 plasmids carrying wild-type and mutant blaKPC-2 genes as well as the pUCP24 vector were transformed into PAM1154, an efflux-deficient strain of Pseudomonas aeruginosa. In this host, the effect of β-lactamases on β-lactam MIC is amplified due to the slowed uptake of β-lactams across the low-permeability outer membrane without interference by efflux of either β-lactams or BLIs. Consequently, this host allows detection of β-lactamase activity (as an MIC increase) of low-catalytic-efficiency enzymes that rely heavily on the low permeability of the outer membrane. Using the strain that lacks efflux pumps ensures no interference from efflux in interpreting results. We next evaluated the steady-state protein expression levels in bacterial cells. […] The observed discrepancy with our results could be attributed to the difference in either the expression vector or host bacteria.
(§1) For microbiological studies, wild-type blaKPC-2 and its mutant variants were cloned into the shuttle vector pUCP24. Resulting plasmids were transformed in the efflux-deficient strain of P. aeruginosa PAM1154 using selection on 15 μg/ml of gentamicin. Using a strain of P. aeruginosa as opposed to E. coli as a host for various cloned genes was based on the following consideration. As well documented elsewhere ([41]), P. aeruginosa has a low-permeability outer membrane; consequently, the effect of β-lactamases on MIC is amplified in P. aeruginosa compared to that in E. coli due to the slowed uptake of β-lactams. Thus, this host is appropriate to detect β-lactamase activity (as an MIC increase) of low-catalytic-efficiency enzymes that rely heavily on low permeability of the outer membrane. […] MICs were determined using the Clinical and Laboratory Standards Institute (CLSI) broth microdilution method as described in CLSI document M07-A11 ([42]). Potentiation of antibiotic activity by various BLIs in bacterial strains carrying wild-type (WT) and mutant KPC-2 genes was performed using standard checkerboard methodology ([43]). BLI potency was defined as PV50 (PV, potentiation value). PV50 is the minimal concentration of a BLI that is required to reduce the antibiotic MIC to the middle of the MIC range (E50) where the highest MIC is the MIC for a KPC-producing strain with no inhibitor added and the lowest MIC is the MIC for the vector-only strain, corresponding to the complete inhibition of KPC. E50 is calculated as the square root of the product of the antibiotic MICs for the KPC-producing and the vector-only strains.
Background: Broth dilution looks for growth in wells or tubes with falling amounts of substance.

For assay [2], the system named is P. aeruginosa PAM1154 carrying KPC-2::D179Y (PAM4639). Briefly: Checkerboard potentiation of antibiotic activity by BLIs. The settings on record: for increase of PV50 vs wild-type KPC-2: D179Y; for PV50: PAM4639 KPC-2::D179Y. In kind it is cell-based, Pseudomonas aeruginosa.
Source text: (§2) BLI potency was defined as PV50 (PV, potentiation value) of antibiotic potentiation. PV50 is the concentration of a BLI that is required to reduce the antibiotic MIC to the middle of the MIC range where the highest MIC is the MIC for a KPC-producing strain with no inhibitor added and the lowest MIC is the MIC for the vector-alone strain, which corresponds to complete inhibition of KPC. As a given MIC is directly related to the β-lactamase activity, PV50 might be considered the concentration of a BLI that is required to achieve half-effect of inhibition of β-lactamase activity (in whole cells) to hydrolyze an antibiotic of interest. […] However, the accurate determination of PV50 requires the MIC range to be relatively wide.
as §1, with “Potentiation of antibiotic activity by various BLIs in bacterial strains carrying wild-type (WT) and mutant KPC-2 genes was performed using standard checkerboard methodology ([43]).” left out
(§3) […]
(§4) […]

Assay [3] has as its system P. aeruginosa PAM1154 carrying KPC-2::L169P (PAM4751). Described as above. In kind it is cell-based, Pseudomonas aeruginosa. The settings on record: for PV50: PAM4751 KPC-2::L169P.
Source text: as §2
as §1, with “Potentiation of antibiotic activity by various BLIs in bacterial strains carrying wild-type (WT) and mutant KPC-2 genes was performed using standard checkerboard methodology ([43]).” left out
as §3, §4

Assay [4] deals with P. aeruginosa PAM1154 carrying wild-type KPC-2 (PAM4135). Described as above. The assay is classed as cell-based, Pseudomonas aeruginosa. As to conditions: PAM4135 KPC-2.
Source text: as §2
as §1, with “Potentiation of antibiotic activity by various BLIs in bacterial strains carrying wild-type (WT) and mutant KPC-2 genes was performed using standard checkerboard methodology ([43]).” left out
as §3, §4

The target of assay [5] is T1, KPC-2 (Klebsiella pneumoniae, UniProt Q9F663).
T1 construct: 6xHis (C); made in house; host or cells: E. coli BL21(DE3) pLys, pET28a
Nature of the assay: Inactivation kinetics (k2/K, k−2, Kd), nitrocefin reporter substrate method. As to conditions: NCF hydrolysis, 37°C. The assay is classed as biochemical. How it is done: Inactivation kinetic parameters were determined by reporter substrate method for the slow tight binding inhibitor kinetic scheme ([45]). Protein was quickly mixed with 100 μM nitrocefin and various concentrations of BLI in reaction buffer, and absorbance at 490 nm was measured immediately every 2 s for 600 s on a SpectraMax plate reader (Molecular Devices, San Jose, CA) at 37°C. Resulting progression curves of OD490 versus time at various BLI concentrations were imported into Prism software (GraphPad, San Diego, CA), and pseudo-first-order rate constants (kobs) were calculated using the following equation: P=Vs×(1-e^-kobs^×^t)/kobs where Vs is enzyme nitrocefin cleavage rate in the absence of BLI. kobs values calculated at various vaborbactam concentrations were fitted in the following equation: kobs=k−2+k2/K×[I]/{1+[NCF]/Km(NCF)} where k2/K is the inactivation constant, [I] is inhibitor concentration, [NCF] is nitrocefin concentration, and Km(NCF) is the Michaelis constant of nitrocefin for KPC-2.

Assay [6] has as its target T2, KPC-2 D179Y (Klebsiella pneumoniae, UniProt Q9F663, D178Y).
T2 construct: 6xHis (C); made in house; host or cells: E. coli BL21(DE3) pLys, pET28a
The settings on record: D179Y substitution in KPC-2; cited from earlier work.

T2 sequence (Q9F663 25-293 D178Y): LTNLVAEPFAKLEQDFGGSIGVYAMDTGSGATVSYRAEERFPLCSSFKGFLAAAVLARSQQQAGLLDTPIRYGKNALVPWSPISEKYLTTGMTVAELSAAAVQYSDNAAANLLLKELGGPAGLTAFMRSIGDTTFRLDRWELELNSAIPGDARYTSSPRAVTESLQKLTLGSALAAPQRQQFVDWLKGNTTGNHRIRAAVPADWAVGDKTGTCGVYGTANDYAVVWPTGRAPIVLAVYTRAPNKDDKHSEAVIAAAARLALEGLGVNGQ
T1 sequence (Q9F663 25-293 limits assumed): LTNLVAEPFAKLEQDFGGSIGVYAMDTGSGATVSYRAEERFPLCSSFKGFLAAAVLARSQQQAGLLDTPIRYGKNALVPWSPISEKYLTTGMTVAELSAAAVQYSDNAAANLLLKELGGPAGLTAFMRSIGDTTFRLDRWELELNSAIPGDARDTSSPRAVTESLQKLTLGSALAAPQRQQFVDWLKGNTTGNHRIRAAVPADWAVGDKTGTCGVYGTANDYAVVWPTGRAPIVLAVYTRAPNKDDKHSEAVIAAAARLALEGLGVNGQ

Broadly, the MIC is the lowest concentration that inhibits growth of the organism. Turning to `NC(=O)[C@@H]1CC[C@@H]2CN1C(=O)N2OS(=O)(=O)O` [Avibactam, avibactam], the MIC in assay [1] amounted to 128 µg/mL. Also, the “increase of PV50 vs wild-type KPC-2” value in assay [2] (cefepime) turned out to be 16 fold; in assay [2] (ceftazidime), 32 fold; in assay [2] (piperacillin) it was 4 fold; in assay [3] (L169P, cefepime), 4 fold. Moreover, the PV50 came out at 4 µg/mL in assay [2] (potentiation of cefepime); 4 µg/mL in assay [2] (potentiation of ceftazidime); 1 µg/mL in assay [2] (potentiation of piperacillin); 1 µg/mL in assay [3] (potentiation of cefepime); 2 µg/mL in assay [3] (potentiation of ceftazidime); 2 µg/mL in assay [3] (potentiation of piperacillin). Also, the PV50 in assay [4] (potentiation of cefepime) was determined as 0.25 µg/mL; in assay [4] (potentiation of ceftazidime), 0.125 µg/mL. Moreover, in assay [5], the “k−2” value is 3.3 ± 0.1 × 10^−4 s^−1. Moreover, the “decrease in the inactivation constant k2/K” value in assay [6] is 70,000 fold.

The values are drawn from PMC7179312 (Antimicrobial Agents and Chemotherapy, 2020).
